# Experimental data: patent US20220193253A1, “SLOW-RELEASE CYTOKINE CONJUGATES” (ProLynx LLC, priority 2019, published 2022)
# Entries after “also recorded” stand apart in the source; their conditions may differ.
# How the values were obtained:
# [1] = system: Treg cells over Teff and NK cells; settings: cited from earlier work
# cell proliferation = settings: cited from earlier work
# [2] = Pharmacokinetics of [aminopropyl]-IL-15 released from microsphere-IL-15; type: in vivo, C57BL/6J mice
# Protocol: The microsphere-IL-15 slurry of Example 10 (275 nmol protein/mL) was diluted in 25 mM Na citrate buffer pH 5.9 containing 500 mM NaCl, 0.05% tween-20 and 1.25% (w/v) hyaluronic acid. For studies that required various doses of microsphere-IL15, serial dilutions were used obtain the desired microsphere-IL-15 concentration. In all cases, aseptic conditions were used to handle and prepare the microsphere conjugate. Syringes with fixed needles (27G) were backfilled with the conjugate (100 μL). The contents of the syringes were administered either s.c. or i.p. to normal, male C57BL/6J mice. Blood samples were drawn at −24, 4, 8, 24, 48, 96, 168 and 240 hours from alternating groups consisting of 3 mice each. HALT protease inhibitor cocktail (ThermoFisher Scientific) was added to all plasma samples prior to being frozen at −80° C. until analysis.
# ELISAs for hIL-15 were performed according to the manufacturer's instructions (R&D Systems, hIL-15 Quantikine, Catalog #D1500) to determine the rhIL-15 plasma. Plasma samples were thawed on ice prior to dilution in the standard diluent provided by the manufacturer. The 4, 8, hour samples were diluted 50-fold, the 24 hour samples was diluted twenty-five fold, and the pre-bleed, 48, 96, 168 and 240 hour samples were diluted ten-fold. hIL-15 concentrations were plot as a function of time and fit using GraphPad Prism software.
# Pharmacokinetics of [aminopropyl]-IL-15 released from the microsphere conjugate were measured in normal C57BL/6J mice. Mice were dosed with 2.4 nmol conjugated protein (200 μL injection). […] After approximately 120 hours, the observed concentration quickly decreases (FIG. 11). A one phase decay model fit of data through 120 results in a half-life of at least 200 hours. […] A second injection of MS-IL-15 (50 μg) increases the measured plasma IL-15 at 248 h to a similar concentration of the initial dose.
# [3] = system: CD44hiCD8+ T cells and NK cells in PBMCs; test: Pharmacodynamics of [aminopropyl]-IL-15 released from microsphere-IL-15; type: in vivo, C57BL/6J mice; settings: for expansion of CD44hiCD8+ T cells / expansion of NK cells: single dose 2.5 μg; for expansion of NK cells in PBMCs: single s.c. injection 12.5, 25 or 50 μg
# Protocol: For flow cytometry analysis, PMBCs were prepared and surface staining was performed to quantitate NK1.1, CD3, CD8, and CD44 expressing cells. Commercial FITC-, PE- or allophycocyanin-conjugated antibodies were used. Sample data were collected on a FACScan flow cytometer (BD Biosciences) and analyzed using FlowJo cytometry analysis software (TreeStar, Ashland, Oreg.).
# Pharmacodynamics of [aminopropyl]-IL-15 released from the microsphere-IL-15 of Example 10 were measured in normal, male C57BL/6J mice (n=3/group) (FIG. 14). Mice were dosed with microsphere-IL-15 (2.5, 12.5, 25 or 50 μg conjugated protein) prepared in Example 10. PMBCs were prepared and surface stained for flow cytometry analysis of NK1.1, CD3, CD8, and CD44 expressing cells. Commercial FITC-, PE- or allophycocyanin-conjugated antibodies were used. Sample data were collected on a FACScan flow cytometer (BD Biosciences) and analyzed using FlowJo cytometry analysis software (TreeStar, Ashland, Oreg.).
# [4] = system: T-cells in the spleen and islets; test: Pharmacodynamics of IL2 and IL2[N88R,C125S] in NOD mice (flow cytometry of spleen and islets); type: in vivo; settings: daily injections 25,000 units for five days
# Protocol: Mice were sacrificed 2 hours after the last injection and the spleen and pancreas were harvested for flow cytometry analysis to measure changes in total number of T-cells and their differentiation in the spleen and islets.
# [5] = system: Foxp3+CD4+ T-cells and CD8+ T-cells; test: Pharmacodynamics of microsphere-IL-2[N88R,C125S] in NOD mice (flow cytometry); type: in vivo
# Protocol: Three groups of six NOD mice were used to determine the PK/PD of [aminopropyl]-IL-2[N88R,C125S] released from the microsphere-IL-2[N88R,C125S] conjugate. […] The second group was administered a subcutaneous injection of empty microspheres, in which cyclooctynes were capped with N3(CH2CH2O)7H. The third group was administered a single subcutaneous injection of the microsphere-IL-2[N88R,C125S] of Example 4 (0.5, 1, 5, 10 or 19 mg of protein/kg). Plasma, peripheral blood mononuclear cells (PBMCs) and organ tissues were prepared and analyzed according to the description in figure legends. Flow cytometric analysis of lymphocytes was performed to monitor changes in T-cell populations. The spleen and lymph nodes and islets were isolated and single cell suspensions were prepared. Surface-staining was performed following standard cell surface immunofluorescence staining for flow cytometry. Fixation and intracellular staining followed protocols from the eBioscience Foxp3/Transcription Factor Staining Buffer Set (ThermoFisher Scientific). Antibodies used were against CD3, CD4, CD8, CD25, CD44 CD45, and FoxP3; all were from commercial vendors. Stained single cell suspension were analyzed using a LSRII flow cytometer (BD Biosciences).
# The percentage CD8+ cells found in the spleen and PBMCs were approximately 11% and 19% respectively. These percentages increased to approximately 25% and 60% respectively, when treated with the microsphere-IL-2[N88R,C125S]. NOD mice were administered IL2-mutein (QDx5, 25,000 units), a single injection of empty microspheres or microsphere-IL-2[N88R,C125S](18 mg/kg). Mice were sacrificed 2 hours after the last dose on day 5.
# To determine an effective dose that would expand the Foxp3^+CD4^+Tcells population without the activation of CD8′ cells, a dose titration study of microsphere-IL-2[N88R,C125S] was performed. Four concentrations of the microsphere-IL-2[N88R,C125S](0.5 mg/kg, 1 mg/kg, 5 mg/kg and 10 mg/kg) were tested and the pharmacodynamics were monitored through PBMCs over two weeks. […] Foxp3^+CD4^+T-cell expansion peaked at four days and returned to baseline levels at day 14 for all doses (FIG. 9 A).
# CD8+ effector Tmem cells = settings: continuous infusion over 10 days; cited from earlier work
# [6] = 2.5, 12.5, 25 or 50 μg conjugated protein
# [7] = single sc injection 12.5, 25 or 50 μg
# [8] = single injection 18 mg/kg, day 5
substance,measurement,setting,value
"BAY 50-4798: IL-2 mutein having an arginine replacing asparagine at position 88, SEQ ID No: 2",increase in selectivity for activation of Treg cells over Teff and NK cells,[1],"3,000 fold"
"IL-15[N72D]: IL-15 mutein with enhanced receptor agonism, SEQ ID No: 15",fold increase in biological activity over native IL-15,cell proliferation,4-5 fold
"MS-IL-15: BCN-activated PEG hydrogel microspheres loaded with linker-IL-15 (MeSO2 linker, N-terminal reductive alkylation)",change in average mouse body weight,[2]; 2.4 nmol conjugated protein,no significant change
same,final average mouse body weight,"[2]; 2.4 nmol conjugated protein, initial 25.1±1.3 g",25.1 ± 1.4 g
same,change in average body weight,[3]; [6],no significant change
same,clinical observation: injection site reaction,[3]; [6],no injection site reaction
same,fold expansion of NK cells at peak,"[3]; 12.5, 25 or 50 μg",2-3 fold
same,CD44hiCD8+ T cells levels at 28 days,[3]; highest dose 50 μg,two-fold above the control group
same,final average body weight,[3]; initial 25.1±1.3 g,25.1 ± 1.4 g
same,duration of expansion of CD44hiCD8+ T cells,[3]; single 50 ug injection,28 days
same,expansion of CD44hiCD8+ T cells,[3],no observed expansion
same,expansion of NK cells,[3],not observed
same,expansion of NK cells in PBMCs,[3],dose dependent expansion
same,expansion of NK cells in PBMCs,[3]; listed as microsphere-IL15,expands
same,CD44hiCD8+ T cells remained elevated above the control group through,[3]; [7],21 days
same,expansion of CD44hiCD8+ T cells in PBMCs,[3]; [7],dose dependent expansion
same,fold expansion of CD44hiCD8+ T cells at peak,[3]; [7],two to four fold
same,time of peak CD44hiCD8+ T cell expansion post treatment,[3]; [7],5 days
same,expansion of CD44hiCD8+ T cells in PBMCs,"[3]; single sc injection 12.5, 25 or 50 μg, listed as microsphere-IL15",expands
"Proleukin: Aldesleukin (recombinant IL-2), used as native IL-2 comparator in NOD mice [reference compound]",effect on CD4+ and CD8+ effector/memory T-cells in the spleen,[4],increase in both T-cell populations
same,effect on the T-cells in the islets compared to PBS vehicle,[4],little to no effect
"[aminopropyl]-IL-15: IL-15 with N-terminal aminopropyl remnant, released from microsphere-IL-15",AUCip compared to AUCsc,[2]; 50 μg,nearly two-fold higher
same,AUCip,[2]; released from MS-IL-15 50 μg i.p.,25.2 nM·h
same,AUCsc,[2]; released from MS-IL-15 50 μg s.c.,14.9 nM·h
"microsphere-IL-2[N88R,C125S]: PEG hydrogel microspheres carrying linker-N-terminal aminopropyl-IL-2[N88R,C125S] (MeSO2 linker, reductive alkylation); releases [aminopropyl]-IL-2[N88R,C125S]","percentage / activation of CD8+ cells, dose titration","[5]; doses 0.5-10 mg/kg, PBMCs",did not increase; also recorded: avoids activation
same,expansion of Foxp3+CD4+ T-cells in spleen and PBMC,[5]; [8],massive expansion
same,"percentage CD8+ cells, PBMCs",[5]; [8],60%
same,"percentage of T-cells that were Foxp3+CD4+ T-cells, PBMC",[5]; [8],~55%
same,"percentage of T-cells that were Foxp3+CD4+ T-cells, spleen",[5]; [8],~70%
same,"expansion of Foxp3+CD4+ T-cells in PBMCs, dose titration","[5]; single injection 0.5, 1, 5, 10 mg/kg, two weeks",dose dependent expansion; also recorded: preferentially expands
"rhIL-15: native IL-15, SEQ ID No: 12 [reference compound]",expansion of CD8+ effector Tmem cells in the peripheral blood,CD8+ effector Tmem cells,100 x
same,expansion of CD44hiCD8+ T cells,[3],no observed expansion
same,expansion of NK cells,[3],not observed
